Results published in PMC9381564 (Plant and Cell Physiology, 2022).

Target: T1, SoGDH (spinach L-galactose dehydrogenase) (Spinacia oleracea, UniProt Q6BDJ2)
T1 sequence (Q6BDJ2 1-322): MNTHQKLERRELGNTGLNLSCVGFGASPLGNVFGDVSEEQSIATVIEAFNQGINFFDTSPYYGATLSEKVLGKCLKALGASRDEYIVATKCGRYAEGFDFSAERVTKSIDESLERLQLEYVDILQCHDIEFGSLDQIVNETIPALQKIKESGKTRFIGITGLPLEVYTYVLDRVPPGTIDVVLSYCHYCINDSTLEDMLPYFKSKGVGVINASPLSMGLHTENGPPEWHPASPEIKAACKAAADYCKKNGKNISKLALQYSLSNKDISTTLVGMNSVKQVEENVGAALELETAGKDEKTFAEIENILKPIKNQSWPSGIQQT
Experiment: X-ray crystal structure, co-crystallisation, […] A
Type: binding
Settings: 5 mM NAD+, 1 mM L-galactose in drop, Bis-Tris pH 5.5

NC(=O)c1ccc[n+]([C@@H]2O[C@H](COP(=O)(O)OP(=O)(O)OC[C@H]3O[C@@H](n4cnc5c(N)ncnc54)[C@H](O)[C@@H]3O)[C@@H](O)[C@H]2O)c1 [NAD^+]
X-ray crystal structure, co-crystallisation, 1.75 A: crystals of SoGDH complexed with the cofactor NAD^+ were obtained using co-crystallization
